Consider 22 compounds from US8173645B2 (Takeda San Diego, Inc., priority 2007, dated 2012).

This assay has as its target T1, glucokinase (GK), residues 12-465 of the human enzyme (Homo sapiens, UniProt P35557).
T1 construct: I.D. No. 1 corresponds to residues 12-465 of glucokinase; made in house; host or cells: E. coli DH10b-Tlr
T1 sequence (P35557 with tags, fused parts or gaps isoform P35557-2): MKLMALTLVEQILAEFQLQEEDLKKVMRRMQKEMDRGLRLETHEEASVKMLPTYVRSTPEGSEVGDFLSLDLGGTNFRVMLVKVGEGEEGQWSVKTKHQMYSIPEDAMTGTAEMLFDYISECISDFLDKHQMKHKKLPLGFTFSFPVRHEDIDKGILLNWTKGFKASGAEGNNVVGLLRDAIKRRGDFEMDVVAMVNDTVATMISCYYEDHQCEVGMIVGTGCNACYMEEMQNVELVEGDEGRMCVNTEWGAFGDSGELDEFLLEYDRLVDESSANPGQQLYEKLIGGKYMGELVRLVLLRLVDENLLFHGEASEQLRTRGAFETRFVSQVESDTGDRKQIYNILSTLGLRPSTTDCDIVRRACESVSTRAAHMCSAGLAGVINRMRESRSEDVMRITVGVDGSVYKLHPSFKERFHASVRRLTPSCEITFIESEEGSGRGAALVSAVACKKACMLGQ
The assay is described as follows: Enzymatic glucokinase activity assay (KinaseGlo luminescence, ATP consumption). Format: biochemical. Conditions: 5 μM ATP, 5 mM Glucose; for EC50: GK activation, Kact = concentration giving 50% of the maximal increase in GK activity, read-out: pKact; for Emax: calculated maximal gain in GK enzyme activity at a saturating concentration of the compound, read-out: % ACTmax. From the text:
The activity of compounds as glucokinase activators may be assayed in vitro, in vivo or in a cell line. Provided below is an enzymatic glucokinase activity assay.
Purified glucokinase may be obtained as follows. DNA encoding residues 12-465 of the full-length sequence of the human enzyme may be amplified by PCR and cloned into the HindIII and EcoRI sites of pFLAG-CTC (Sigma). SEQ. I.D. No. 1 corresponds to residues 12-465 of glucokinase.
The expression of recombinant glucokinase protein may be carried out by transformation and growth of DH10b-Tlr E. coli cells incorporating the (pFLAG-CTC) plasmid in LB media. Protein expression can be induced in this system by the addition of IPTG to the culture medium.
Recombinant protein may be isolated from cellular extracts by passage over Sepharose Q Fast Flow resin (Pharmacia). This partially purified GK extract may then be further purified by a second passage over Poros HQ 10 (Applied Biosystems). The purity of GK may be determined on denaturing SDS-PAGE gel. Purified GK may then be concentrated to a final concentration of 20.0 mg/ml. After flash freezing in liquid nitrogen, the proteins can be stored at −78° C. in a buffer containing 25 mM TRIS-HCl pH 7.6, 50 mM NaCl, and 0.5 mM TCEP.
The activation properties of compounds for GK may be determined using a black 384-well-plate format under the following reaction conditions: 25 mM Hepes pH 7.2, 25 mM NaCl, 10 mM MgCl2, 0.01% Brij35, 1 mM DTT, 5 μM ATP, 5 mM Glucose 2% DMSO. The amount of ATP consumed may be determined quantitatively by addition of equal volume of luciferase reagent (luciferase+beetle luciferin—KinaseGlo Luminescent Kinase Assay kit from Promega). The luminescence intensity may be measured by using the Analyst HT from LJL Biosystems.
The assay reaction may be initiated as follows: 4 μl of substrate mixture (12.5 μM ATP and 12.5 mM Glucose) was added to each well of the plate, followed by the addition of 2 μl of activator (2 fold serial dilutions for 11 data points for each activator) containing 10% DMSO. 4 μL of 1.25 nM GK solution may be added to initiate the reaction. The reaction mixture may then be incubated at room temperature for 60 min, and quenched and developed by addition of 10 μL of luciferase reagent. Luminescence intensities of the resulting reaction mixtures may be measured after a 10 min incubation at room temperature. The luminescence intensity may be measured by using the Analyst HT from LJL Biosystems.
pKact and % ACTmax values may be calculated by non-linear curve fitting of the compound concentrations and luminescence intensities to a standard inhibition/activation equation.

Consider `O=C(Nc1nccs1)[C@H](CC1CCCCC1)N1CCN(C(=S)Nc2ccc(Cl)cc2)CC1=O` [Example 125, (S)-2-(4-(4-chlorophenylcarbamothioyl)-2-oxopiperazin-1-yl)-3-cyclohexyl-N-(thiazol-2-yl)propanamide], for which the EC50 was not below 3160 nM and the Emax was 97.1 to 107%.

With `O=C(Nc1nccs1)[C@H](CC1CCCCC1)N1CCN(C(=S)Nc2ccc(C(F)(F)F)cc2)CC1=O` [Example 85, (S)-3-cyclohexyl-2-(2-oxo-4-(4-(trifluoromethyl)phenylcarbamothioyl)piperazin-1-yl)-N-(thiazol-2-yl)propanamide], the EC50 is not below 3160 nM and the Emax was not above 74%.

`Cc1ccc2sc(S(=O)(=O)N3CCN([C@@H](CC4CCCCC4)C(=O)Nc4nccs4)C(=O)C3)cc2c1` [Example 107, (S)-3-cyclohexyl-2-(4-(5-methylbenzo[b]thiophen-2-ylsulfonyl)-2-oxopiperazin-1-yl)-N-(thiazol-2-yl)propanamide]: the EC50 lay within 794 to 1260 nM and the Emax was not above 74%.

On to `O=C(Nc1nccs1)[C@H](CC1CCCCC1)N1CCN(S(=O)(=O)c2cc(F)ccc2F)CC1=O` [Example 184, (S)-3-cyclohexyl-2-(4-(2,5-difluorophenylsulfonyl)-2-oxopiperazin-1-yl)-N-(thiazol-2-yl)propanamide], for which the EC50 is not above 631 nM and the Emax was 108 to 119%.

As for `CC(=O)c1ccc(S(=O)(=O)N2CCN([C@@H](CC3CCCCC3)C(=O)Nc3nccs3)C(=O)C2)cc1` [Example 206], the EC50 was not below 3160 nM and the Emax is 74.1 to 97%.

Take `O=C(Nc1ncc(Cl)s1)[C@H](CC1CCOCC1)N1CCN(S(=O)(=O)C2CCCC2)CC1=O` [Example 28, (S)-N-(5-chlorothiazol-2-yl)-2-(4-(cyclopentylsulfonyl)-2-oxopiperazin-1-yl)-3-(tetrahydro-2H-pyran-4-yl)propanamide]: the EC50 was not above 631 nM and the Emax was not below 119%.

As to `O=C(Nc1ncc(Cl)s1)[C@H](CC1CCOCC1)N1CCN(S(=O)(=O)c2ccc(F)cc2)CC1=O` [Example 34, (S)-N-(5-chlorothiazol-2-yl)-2-(4-(4-fluorophenylsulfonyl)-2-oxopiperazin-1-yl)-3-(tetrahydro-2H-pyran-4-yl)propanamide], the EC50 fell in the range of 1580 to 2510 nM and the Emax was 97.1 to 107%.

Consider `O=C(Nc1nccs1)[C@H](CC1CCCCC1)N1CCN(S(=O)(=O)c2cnc(Cl)c(Br)c2)CC1=O` [Example 217, (S)-2-(4-(5-bromo-6-chloropyridin-3-ylsulfonyl)-2-oxopiperazin-1-yl)-3-cyclohexyl-N-(thiazol-2-yl)propanamide], for which the EC50 fell in the range of 1580 to 2510 nM and the Emax was not above 74%.

Turning to `O=C(Nc1ncc(F)s1)C(CC1CCOCC1)N1CCN(S(=O)(=O)c2cccc(F)c2)CC1=O` (centres unmarked) [Example 148, 2-(4-(3-fluorophenylsulfonyl)-2-oxopiperazin-1-yl)-N-(5-fluorothiazol-2-yl)-3-(tetrahydro-2H-pyran-4-yl)propanamide], the EC50 lay in the range of 794 to 1260 nM and the Emax is 108 to 119%.

On to `N#Cc1ccc(S(=O)(=O)N2CCN([C@@H](CC3CCCCC3)C(=O)Nc3nccs3)C(=O)C2)cc1` [Example 66, (S)-2-(4-(4-cyanophenylsulfonyl)-2-oxopiperazin-1-yl)-3-cyclohexyl-N-(thiazol-2-yl)propanamide], for which the EC50 lay within 1580 to 2510 nM and the Emax was 74.1 to 97%.

`O=C(Nc1nccs1)[C@H](CC1CCCCC1)N1CCN(S(=O)(=O)c2cc(Cl)c(Cl)s2)CC1=O` [Example 170, (S)-3-cyclohexyl-2-(4-(4,5-dichlorothiophen-2-ylsulfonyl)-2-oxopiperazin-1-yl)-N-(thiazol-2-yl)propanamide]: the EC50 was not above 631 nM and the Emax was not above 74%.

In the case of `N#Cc1ccc(S(=O)(=O)N2CCN([C@@H](CC3CCCCC3)C(=O)Nc3nccs3)C(=O)C2)c(Cl)c1` [Example 52, (S)-2-(4-(2-chloro-4-cyanophenylsulfonyl)-2-oxopiperazin-1-yl)-3-cyclohexyl-N-(thiazol-2-yl)propanamide], the EC50 was 1580 to 2510 nM and the Emax is 74.1 to 97%.

Take `O=C(Nc1nccs1)[C@H](CC1CCCCC1)N1CCN(S(=O)(=O)Cc2ccc(C(F)(F)F)cc2)CC1=O` [Example 210, (S)-3-cyclohexyl-2-(2-oxo-4-(4-(trifluoromethyl)benzylsulfonyl)piperazin-1-yl)-N-(thiazol-2-yl)propanamide]: the EC50 is not below 3160 nM and the Emax was not above 74%.

On to `O=C(Nc1nccs1)[C@H](CC1CCCCC1)N1CCN(C(=S)Nc2ccc(OC(F)F)cc2)CC1=O` [Example 135, (S)-3-cyclohexyl-2-(4-(4-(difluoromethoxy)phenylcarbamothioyl)-2-oxopiperazin-1-yl)-N-(thiazol-2-yl)propanamide], for which the EC50 is not below 3160 nM and the Emax is 97.1 to 107%.

`Cc1c(Cl)cc(F)cc1S(=O)(=O)N1CCN([C@@H](CC2CCCCC2)C(=O)Nc2nccs2)C(=O)C1` [Example 187, (S)-2-(4-(3-chloro-5-fluoro-2-methylphenylsulfonyl)-2-oxopiperazin-1-yl)-3-cyclohexyl-N-(thiazol-2-yl)propanamide]: the EC50 was not above 631 nM and the Emax was 74.1 to 97%.

`CC(=O)Nc1ccc(S(=O)(=O)N2CCN([C@@H](CC3CCCCC3)C(=O)Nc3nccs3)C(=O)C2)cc1` [Example 45, (S)-2-(4-(4-acetamidophenylsulfonyl)-2-oxopiperazin-1-yl)-3-cyclohexyl-N-(thiazol-2-yl)propanamide]: the EC50 is not below 3160 nM and the Emax is 97.1 to 107%.

`O=C(Nc1nccs1)[C@H](CC1CCCCC1)N1CCN(S(=O)(=O)c2cccc3ccccc23)CC1=O` [Example 65, (S)-3-cyclohexyl-2-(4-(naphthalen-1-ylsulfonyl)-2-oxopiperazin-1-yl)-N-(thiazol-2-yl)propanamide]: the EC50 lay within 1580 to 2510 nM and the Emax is not above 74%.

With `O=C(Nc1nccs1)[C@H](CC1CCCCC1)N1CCN(S(=O)(=O)c2cccc(Br)c2)CC1=O` [Example 232, (S)-2-(4-(3-bromophenylsulfonyl)-2-oxopiperazin-1-yl)-3-cyclohexyl-N-(thiazol-2-yl)propanamide], the EC50 was not above 631 nM and the Emax was 108 to 119%.

In the case of `O=C(Nc1nccs1)[C@H](CC1CCCCC1)N1CCN(S(=O)(=O)c2cc(Cl)c(Cl)cc2Cl)CC1=O` [Example 219, (S)-3-cyclohexyl-2-(2-oxo-4-(2,4,5-trichlorophenylsulfonyl)piperazin-1-yl)-N-(thiazol-2-yl)propanamide], the EC50 was in the range of 1580 to 2510 nM and the Emax is not above 74%.

In the case of `O=C(Nc1nccs1)[C@H](CC1CCCCC1)N1CCN(S(=O)(=O)Cc2ccc(Cl)cc2)CC1=O` [Example 69], the EC50 lay within 1580 to 2510 nM and the Emax is 97.1 to 107%.

For `NS(=O)(=O)c1ccc(NC(=S)N2CCN([C@@H](CC3CCCCC3)C(=O)Nc3nccs3)C(=O)C2)cc1` [Example 134, (S)-3-cyclohexyl-2-(2-oxo-4-(4-sulfamoylphenylcarbamothioyl)piperazin-1-yl)-N-(thiazol-2-yl)propanamide], the EC50 lay in the range of 1580 to 2510 nM and the Emax is 108 to 119%.

Take `O=C(Nc1nccs1)[C@H](CC1CCCCC1)N1CCN(C(=O)Nc2ccc3ccccc3c2)CC1=O` [Example 139, (S)-4-(3-cyclohexyl-1-oxo-1-(thiazol-2-ylamino)propan-2-yl)-N-(naphthalen-2-yl)-3-oxopiperazine-1-carboxamide]: the EC50 is not below 3160 nM and the Emax was 74.1 to 97%.
